According to patent publication US5424394A, “Synthetic preparation of amylin and amylin analogues” (priority 1993, dated 1995):
Read-outs that look alike come from different tables or passages of the source. Ends that are not written are not given here.

System: isolated rat soleus muscle
Experiment: insulin-stimulated incorporation of labelled glucose into glycogen in isolated rat soleus muscle (soleus muscle assay)
Format: cell-based
From the text: According to the present invention, we have developed methods for the efficient synthesis of amylin and amylin analogs which result in peptides of high purity which are substantially free of deletion peptides and other contaminating peptides and which show reproducibly high biological activity as measured by assays of its ability to cause resistance to insulin in vitro by inhibiting insulin-stimulated incorporation of labelled glucose into glycogen in isolated rat soleus muscle.
The present invention also provides synthetic human amylin produced by solid phase peptide synthesis which has an EC50 of about 2.5 nanomoles/liter±0.3 log units or less according to an assay of insulin-stimulated incorporation of labelled glucose into glycogen in isolated rat soleus muscle. In an especially preferred aspect, such synthetic human amylin is substantially free of deletion and other contaminating peptides. […]

EC50 (peptide at least about 95% pure after preparative RP-HPLC, read-out: EC50 as measured by soleus muscle assay): < 5 nM
EC50 (±0.3 log units, inhibition of insulin-stimulated glycogen synthesis, read-out: EC50 according to an assay of insulin-stimulated incorporation of labelled glucose into glycogen in isolated rat soleus muscle): ≤ 2.5 nM
Substance: Human Amylin (KCNTATCATQRLANFLVHSSNNFGAILSSTNVGSNTY-NH2; cysteine pairing not given here; UniProt P10997 34-70, looked up) [37-amino acid peptide with internal disulfide bond and C-terminal amide, made by solid phase peptide synthesis]
